Test in all cases: NCI tumour cell line growth inhibition, 48 h
The test system of assay [1] is KM12 colon.
Assay [2] deals with NCI-H522 lung.
For assay [3], the system named is 786-0 renal.
Assay [4] relates to HL-60(TB) leukemia.
For assay [5], the system named is PC-3 prostate.
Assay [6] concerns SN12C renal.
The subject of assay [7] is OVCAR-5 ovarian.
Assay [8] has as its system EKVX NSCLC.
Assay [9] concerns M14 melanoma.
The subject of assay [10] is NCI-H226 lung.

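Briefly, cells in 96-well plates were exposed to five compound concentrations for 48 h, and endpoints were estimated by linear interpolation. Here, GI50 denotes the concentration required for 50% inhibition of growth. TGI denotes the concentration required for complete inhibition of growth.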

Consider `COc1ncnc(S(=O)(=O)c2ccc(N=C3C(=O)N(CN4CCN(c5cc6c(cc5F)c(=O)c(C(=O)O)cn6C5CC5)CC4)c4ccc(Cl)cc43)cc2)c1OC`, for which the GI50 was 24.2 µM in assay [1]; greater than 50 µM in [2]; 33.7 µM in [3]; 26.8 µM in assay [4]; 34.9 µM in [5]; 30.4 µM in [6]. Further, the GI50 was greater than 50 µM in assay [7], 1.24 µM in assay [8], greater than 50 µM in assay [9] and 38.9 µM in assay [10]. Further, the TGI in assay [1], in assay [2], in assay [3], in assay [4], in [5] and in assay [6] was greater than 50 µM throughout. Further, the TGI in [7], in [8], in [9] and in assay [10] was greater than 50 µM each time.
For `CN(C)CCSS(=O)(=O)O`, the TGI in assay [1], in assay [2], in assay [3], in assay [4], in assay [5] and in [6] was greater than 100 µM each time. Moreover, the TGI in [7], in assay [8], in assay [9] and in assay [10] was greater than 100 µM in each case.
Turning to `Cc1nc2c(n1C)C(=O)c1ccccc1C2=O`, the GI50 is 59.7 µM in [1]; 40.6 µM in [2]; greater than 100 µM in assay [3]; 46.8 µM in [4]; 63.9 µM in assay [5]; 49.4 µM in assay [6]. The GI50 is greater than 100 µM in assay [7], 60.4 µM in [8], 43 µM in assay [9] and greater than 100 µM in [10]. Also, the TGI in [1], in assay [2], in assay [3], in [4], in assay [5] and in [6] was greater than 100 µM each time. The TGI in [7], in assay [8], in assay [9] and in [10] was greater than 100 µM each time.
`O=P1(S)OC[C@H]2O[C@@H]3[C@H](F)[C@@H]2OP(O)(=S)OC[C@H]2O[C@H]([C@H](F)[C@@H]2O1)n1cnc2c(ncnc21)NC/C=C/CNc1ncnc2c1ncn23` (some centres undefined): the GI50 is greater than 100 µM in [1]; greater than 100 µM in assay [2]; greater than 100 µM in assay [3]; 0.365 µM in assay [4]; greater than 100 µM in assay [5]; greater than 100 µM in assay [6]. The GI50 in assay [7] is greater than 44.1 µM; in [8] it was greater than 100 µM; in assay [9], greater than 100 µM; in assay [10], 0.652 µM. Also, the TGI in assay [1], in assay [2], in assay [3], in assay [5], in assay [6] and in assay [7] was greater than 100 µM in each case. Besides, the TGI in assay [8], in [9] and in assay [10] was greater than 100 µM each time.
With `COc1cc2c(cc1O)CC1c3c(cc(O)c(OC)c3-2)CCN1C` (centres undefined), the TGI in assay [1], in assay [2], in assay [3], in assay [4], in [5] and in assay [6] was greater than 100 µM each time. For the same compound, the TGI in assay [7], in assay [8], in assay [9] and in assay [10] was greater than 100 µM throughout.
Consider `CC(C)Cc1ccc(C(C)CC2=CCC(CN(C)C)C2=O)cc1` (centres undefined), for which the TGI was 10.7 µM in assay [1]; 8.84 µM in assay [2]; 3.34 µM in assay [3]; 4.47 µM in assay [4]; 28.4 µM in [5]; 20 µM in assay [6]. Further, the TGI came to 29.9 µM in assay [7], 33.9 µM in [8], 17.2 µM in assay [9] and 33.7 µM in assay [10].
`O=C(Oc1ccc(CO[N+](=O)[O-])cc1)c1ccccc1`: the GI50 in [1] was 0.163 µM; in assay [2], 0.158 µM; in [3], 0.0945 µM; in [4] it was 0.0514 µM; in [5], 0.13 µM; in assay [6] it was 0.216 µM. Further, the GI50 was 0.172 µM in assay [7], 0.407 µM in [8], 0.115 µM in assay [9] and 0.214 µM in assay [10]. In addition, the TGI in assay [1] came to 0.33 µM; in assay [2] it was 0.318 µM; in assay [3], 0.235 µM; in assay [4], 0.267 µM; in assay [5] it was 0.301 µM; in [6], 0.701 µM. For the same compound, the TGI in [7] came to 0.316 µM; in assay [8] it was 1.59 µM; in assay [9], 0.271 µM; in [10] it was 0.518 µM.
In the case of `Cc1nc2ccc(NC(=O)CCNC(=O)CCCc3ccc(CC(C(=O)O)C(=O)O)cc3)cc2s1`, the GI50 in assay [1], in assay [2], in assay [3], in assay [4], in assay [5] and in assay [6] was greater than 100 µM throughout. Besides, the GI50 in assay [7], in assay [8], in [9] and in assay [10] was greater than 100 µM each time. The TGI in assay [1], in [2], in [3], in [4], in assay [5] and in assay [6] was greater than 100 µM each time. For the same compound, the TGI in [7], in assay [8], in assay [9] and in [10] was greater than 100 µM in each case.
Take `CC1=Nc2ccccc2/C1=C\c1c(C)[nH]c2ccccc12`: the TGI is 26 µM in assay [1]; 23.6 µM in [2]; 25.8 µM in [3]; 50.2 µM in assay [4]; 39.2 µM in assay [5]; 72.5 µM in assay [6]. The TGI is 50.9 µM in assay [7], 29.7 µM in assay [8], greater than 100 µM in [9] and 33.2 µM in assay [10].
As for `C1=C2CCCC3=Cc4ccccc4OC23Oc2ccccc21`, the GI50 in assay [1] was 3.61 µM; in assay [2] it was 2.3 µM; in assay [3], 6.41 µM; in assay [4], 3.24 µM; in assay [5], 4 µM; in assay [6], 4.42 µM. In addition, the GI50 in assay [7] was 3.46 µM; in assay [8] it was 5.49 µM; in assay [9], 3.37 µM; in assay [10], greater than 100 µM. For the same compound, the TGI in [1] was 56.7 µM; in assay [2], 6.2 µM; in [3], greater than 100 µM; in assay [4] it was greater than 100 µM; in assay [5], greater than 100 µM; in assay [6], greater than 100 µM. Moreover, the TGI in [7], in [8], in assay [9] and in assay [10] was greater than 100 µM each time.
Regarding `COC(=O)C1C(O)C(C)C(O)C(C)C=C(C)C2=C3C(=C(C)C(=O)c4c(O)c(c(C)c(OC(C)=O)c43)NC(=O)C(C)=C/C=C\C(C)C(O)C(C)C1O)OCO2` (centres undefined), the TGI in [1] was 99.6 µM; in assay [2], 39.4 µM; in [3], greater than 100 µM; in assay [4] it was 41.6 µM; in assay [5] it was greater than 100 µM; in assay [6], greater than 100 µM. Besides, the TGI in assay [7] was greater than 100 µM; in assay [8], greater than 100 µM; in assay [9], 68.9 µM; in assay [10], greater than 100 µM.
Take `COc1cc(C)c(C2NC(=O)c3ccccc3N2)cc1C` (centres undefined): the TGI was greater than 100 µM in assay [1]; 0.713 µM in assay [2]; greater than 100 µM in assay [3]; 0.396 µM in [4]; 15.6 µM in assay [5]; greater than 100 µM in assay [6]. The TGI in assay [7] was greater than 24.8 µM; in [8], greater than 100 µM; in [9], 8.54 µM; in assay [10], 16.5 µM.
Take `C=C1CCC2(C#N)[C@H]3[C@H](CC[C@@H]2C)[C@@H](C)C[C@@H](CC(C)(C)NC(=O)CN2CCC2=O)[C@H]13` (some centres undefined): the GI50 in assay [1] was 3.36 µM; in assay [2], 13.5 µM; in assay [3] it was 13.7 µM; in assay [4] it was 5.05 µM; in assay [5], 4.7 µM; in [6], 11.9 µM. Moreover, the GI50 is 10.7 µM in assay [7], 6.42 µM in assay [8], 4.56 µM in [9] and 11.2 µM in assay [10]. The TGI in assay [1] is 15 µM; in [2] it was 45.6 µM; in assay [3] it was 37.8 µM; in [4] it was 37 µM; in [5], 36.6 µM; in [6], 49.5 µM. Also, the TGI in assay [7] was 22.5 µM; in assay [8], greater than 100 µM; in assay [9], 17.8 µM; in assay [10] it was 33.7 µM.
In the case of `NN=C(CC(O)(C(F)(F)Cl)C(F)(F)Cl)CC(O)(C(F)(F)Cl)C(F)(F)Cl`, the TGI in [1], in assay [2], in assay [3], in [4], in assay [5] and in assay [6] was greater than 10 µM each time. Further, the TGI in [7], in assay [8], in assay [9] and in assay [10] was greater than 10 µM throughout.
Regarding `O=c1[nH]c2ccccc2n1CCCN1CCC(n2c(=O)[nH]c3cc(Cl)ccc32)CC1`, the TGI was 30.6 µM in assay [1]; 29.7 µM in assay [2]; 30 µM in assay [3]; 37.3 µM in [4]; 43.9 µM in assay [5]; 30.6 µM in [6]. Besides, the TGI in assay [7] was determined as 43.1 µM; in assay [8] it was 42.7 µM; in assay [9], 29.9 µM; in [10], 45 µM.

For the origin of these results see PubChem BioAssay (NCI).
